Measurements from ChEMBL document CHEMBL5725283, “2-pyridinecarboxamide derivatives, compositions containing such compounds, and methods of treatment” (2016).

experiment: Glucokinase Activity Assay: Recombinant human liver glucokinase was expressed as a FLAG fusion protein in E. coli, and purified on ANTIFLAG M2 AFFINITY GEL (Sigma). The assay was carried out at 30° C. in a 96-well plate. In the plate was distributed 69 μl each of assay buffer (25 mM Hepes Buffer: pH=7.2, 2 mM MgCl2, 1 mM ATP, 0.5 mM TNAD, 1 mM dithiothreitol), to which was added 1 μl of a DMSO solution of the compound or DMSO as control. Then, 20 μl of pre-ice-cooled enzyme mixture (FLAG-GK, 20 U/ml G6PDH) was distributed thereto, to which was added 10 μl of 25 mM glucose as substrate to initiate the reaction (final glucose concentration=2.5 mM). After starting the reaction, the absorbance at 405 nm was measured every 30 seconds for 10 minutes to evaluate the compound based on the initial increase for 5 minutes. FLAG-GK was added so that the increase of absorbance after 5 minutes fell between 0.05 to 0.1 in the presence of 1% DMSO.

EC50 | SMILES
49.3 nM | CCOC(=O)Cc1csc(NC(=O)c2nc(Sc3nncn3C)ccc2Sc2ccc(F)cc2)n1
137 nM | Cn1cnnc1Sc1ccc(Sc2ccc(F)cc2)c(C(=O)Nc2nc(CC(=O)O)cs2)n1
13.4 nM | CCOC(=O)CSc1cnc(NC(=O)c2nc(Sc3nncn3C)ccc2Sc2ccc(F)cc2)s1
